13 compounds from ChEMBL document CHEMBL1201862, “PubChem BioAssay data set” (2004) can be followed below.

Structures are written as SMILES.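 In this assay, cells in 96-well plates receive the compound at five concentrations for 48 hours. Endpoints are linearly interpolated between the surrounding concentrations. GI50: concentration for 50% inhibition of growth.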 The source made the active and inactive calls. Rule as the data show it: active = GI50 up to about 1.1 µM and inactive = higher.

Test systems include OVCAR-8; DU-145; K562; RXF 393; MOLT-4; SF-295; BT-549; MDA-N; SK-MEL-2; SW-620; M14; PC-3; SK-MEL-5; COLO 205; UO-31; HOP-62; 786-0; CCRF-CEM; SNB-75.
Experiment in all cases: NCI anticancer screen, dose series, 48 h

In the case of `Cc1ccc(C)c(C(=N)c2ccccc2Cc2ccccc2)c1`, the GI50 in the assay on OVCAR-8 is 31.7 µM (inactive); in the assay with DU-145 it was 22.9 µM (inactive); in the assay on K562, 17.9 µM (inactive); with RXF 393, 20 µM (inactive); in the assay with MOLT-4, 15.1 µM (inactive); in the assay on SF-295, 20 µM (inactive). Besides, the GI50 with BT-549 was 32.7 µM (inactive); in the assay with MDA-N it was 23 µM (inactive); in the assay on SK-MEL-2, 15.3 µM (inactive); in the assay on SW-620 it was 31.2 µM (inactive); with M14, 24.2 µM (inactive); in the assay on PC-3 it was 26.7 µM (inactive). For the same compound, the GI50 is 15.5 µM (inactive) in the assay with SK-MEL-5; 26.9 µM (inactive) in the assay with COLO 205; 27.3 µM (inactive) in the assay on UO-31; 24.3 µM (inactive) with HOP-62; 17 µM (inactive) in the assay with 786-0.
`c1ccc(COc2ccc(CC3SCCCS3)cc2)cc1`: the GI50 in the assay with OVCAR-8 was > 100 µM (inactive); with DU-145, > 100 µM (inactive); with K562 it was 52.5 µM (inactive); in the assay with MOLT-4 it was 31.8 µM (inactive); with SF-295 it was > 100 µM (inactive); in the assay on MDA-N, > 100 µM (inactive). Moreover, the GI50 in the assay with SW-620 was > 100 µM (inactive); in the assay on M14, > 100 µM (inactive); with CCRF-CEM, 43.6 µM (inactive); in the assay on PC-3, > 100 µM (inactive); in the assay with SK-MEL-5 it was 35.2 µM (inactive); in the assay with COLO 205, > 100 µM (inactive). Moreover, the GI50 in the assay with HOP-62 is > 100 µM (inactive).
On to `OC1CCCC1C(O)(C(F)(F)F)C(F)(F)F` (stereo not given), for which the GI50 in the assay on OVCAR-8, in the assay with DU-145, in the assay with K562, in the assay on RXF 393, with MOLT-4 and in the assay with SF-295 was > 100 µM (inactive) each time. Also, the GI50 with MDA-N, with SK-MEL-2, in the assay on SW-620, in the assay on M14, in the assay on CCRF-CEM and in the assay on PC-3 was > 100 µM (inactive) throughout. The GI50 in the assay on SK-MEL-5, with COLO 205, in the assay with UO-31, in the assay with HOP-62, in the assay with 786-0 and in the assay with SNB-75 was > 100 µM (inactive) throughout.
In the case of `COc1ccc(C2=CC(c3ccccc3)n3nnnc3N2)cc1` (stereo not given), the GI50 in the assay on OVCAR-8 was > 100 µM (inactive); with DU-145, > 100 µM (inactive); with K562, > 100 µM (inactive); in the assay on RXF 393, > 100 µM (inactive); in the assay with MOLT-4 it was > 100 µM (inactive); with SF-295, 52.2 µM (inactive). Also, the GI50 with SK-MEL-2, in the assay on SW-620, in the assay with M14, in the assay with CCRF-CEM, in the assay on PC-3 and with SK-MEL-5 was > 100 µM (inactive) throughout. Further, the GI50 in the assay on COLO 205 was > 100 µM (inactive); with UO-31, > 100 µM (inactive); in the assay with HOP-62, 40.6 µM (inactive); in the assay on 786-0, > 100 µM (inactive).
Take `CC1=NOC(C)(O)/C1=N/O` (stereo not given): the GI50 in the assay with OVCAR-8, with DU-145, in the assay on K562, in the assay on RXF 393, in the assay with MOLT-4 and with SF-295 was > 100 µM (inactive) throughout. The GI50 in the assay with BT-549, in the assay on SK-MEL-2, in the assay on SW-620, with M14, in the assay on CCRF-CEM and in the assay with PC-3 was > 100 µM (inactive) in each case. Also, the GI50 in the assay on SK-MEL-5, in the assay with COLO 205, with UO-31, in the assay on HOP-62, with 786-0 and with SNB-75 was > 100 µM (inactive) throughout.
For `O=[N+]([O-])c1cccc(C2=NOC3CCCC23)c1` (stereo not given), the GI50 in the assay on OVCAR-8, with K562, with MOLT-4, with SF-295, in the assay on SK-MEL-2 and in the assay on SW-620 was > 100 µM (inactive) in each case. Moreover, the GI50 in the assay on M14, in the assay on CCRF-CEM, in the assay on SK-MEL-5, in the assay on COLO 205, in the assay with UO-31 and in the assay with HOP-62 was > 100 µM (inactive) in each case. Moreover, the GI50 with 786-0 and in the assay on SNB-75 was > 100 µM (inactive) each time.
For `CCN(CC)C(=S)SS(C)(=O)=O`, the GI50 in the assay with OVCAR-8 was 19.8 µM (inactive); in the assay with K562 it was < 0.01 µM (active); in the assay on RXF 393, 11 µM (inactive); in the assay with MOLT-4, 15.8 µM (inactive); in the assay with SF-295 it was 18.9 µM (inactive); in the assay on SK-MEL-2, 17.7 µM (inactive). The GI50 in the assay on SW-620 is 18.5 µM (inactive); in the assay with M14, 18.2 µM (inactive); in the assay on SK-MEL-5, 25.5 µM (inactive); with COLO 205 it was 15.4 µM (inactive); in the assay with UO-31, 19 µM (inactive); with HOP-62, 18.7 µM (inactive). The GI50 was 19.2 µM (inactive) in the assay on 786-0 and 29.6 µM (inactive) with SNB-75.
Take `CCOC(=O)C12CC1(C(=O)OCC)C1CCC2C1` (stereo not given): the GI50 in the assay on OVCAR-8 is > 100 µM (inactive); in the assay on K562, 68.5 µM (inactive); in the assay on MOLT-4, 90.6 µM (inactive); with SF-295, > 100 µM (inactive); in the assay on SW-620, > 100 µM (inactive); in the assay with M14 it was > 100 µM (inactive). Moreover, the GI50 was > 100 µM (inactive) with CCRF-CEM; 54.1 µM (inactive) in the assay with SK-MEL-5; > 100 µM (inactive) in the assay on COLO 205; > 100 µM (inactive) in the assay with UO-31; > 100 µM (inactive) in the assay with HOP-62; > 100 µM (inactive) in the assay with 786-0.
Consider `Cc1ccc(C(=O)CC(Cl)=C(Cl)Cl)cc1`, for which the GI50 in the assay with OVCAR-8 was > 100 µM (inactive); in the assay on DU-145, > 100 µM (inactive); in the assay with K562, 41.6 µM (inactive); with RXF 393 it was 78.5 µM (inactive); in the assay with MOLT-4, 20.5 µM (inactive); in the assay with SF-295, 25.6 µM (inactive). Also, the GI50 was > 100 µM (inactive) in the assay with BT-549; > 100 µM (inactive) with SK-MEL-2; > 100 µM (inactive) in the assay with SW-620; > 100 µM (inactive) with M14; 25.8 µM (inactive) in the assay on CCRF-CEM; > 100 µM (inactive) in the assay with PC-3. The GI50 was > 100 µM (inactive) in the assay with SK-MEL-5; > 100 µM (inactive) in the assay on COLO 205; > 100 µM (inactive) in the assay with UO-31; > 100 µM (inactive) in the assay on HOP-62; 63.1 µM (inactive) in the assay on 786-0; > 100 µM (inactive) in the assay on SNB-75.
With `CCCCCCCCCCCCCCCCC1=CC(=O)C=C(OC)C1=O`, the GI50 with OVCAR-8 is 49.3 µM (inactive); with DU-145, > 100 µM (inactive); in the assay with K562, 47.4 µM (inactive); in the assay with RXF 393, 37 µM (inactive); in the assay with MOLT-4, > 100 µM (inactive); in the assay with SF-295, > 100 µM (inactive). Moreover, the GI50 was > 100 µM (inactive) with MDA-N; > 100 µM (inactive) with SK-MEL-2; > 100 µM (inactive) in the assay with SW-620; > 100 µM (inactive) with M14; 29.4 µM (inactive) in the assay with CCRF-CEM; 80.4 µM (inactive) in the assay on PC-3. Moreover, the GI50 in the assay on SK-MEL-5 was > 100 µM (inactive); in the assay with COLO 205 it was 55.6 µM (inactive); in the assay with UO-31, > 100 µM (inactive); in the assay on HOP-62, > 100 µM (inactive); with 786-0, 47.2 µM (inactive); in the assay with SNB-75, > 100 µM (inactive).
On to `C/C=C(/C)C(=O)O[C@@H]1c2c(C)coc2C[C@H]2CC[C@H](O)[C@H](C)[C@]21C`, for which the GI50 in the assay on OVCAR-8 is 42.5 µM (inactive); in the assay on DU-145 it was > 100 µM (inactive); in the assay on K562, 38 µM (inactive); with RXF 393 it was 27 µM (inactive); in the assay on MOLT-4 it was 30.6 µM (inactive); in the assay on SF-295, > 100 µM (inactive). The GI50 with MDA-N was 50 µM (inactive); in the assay with SW-620, 24 µM (inactive); with M14, 54.1 µM (inactive); in the assay on CCRF-CEM, 36.7 µM (inactive); in the assay on PC-3, 97.7 µM (inactive); in the assay with SK-MEL-5, 35.6 µM (inactive). The results for the GI50 with COLO 205, in the assay with UO-31 and in the assay on HOP-62 were > 100 µM (inactive), 68.2 µM (inactive) and > 100 µM (inactive), respectively.
Consider `C[n+]1c2ccccc2c(C(=O)Nc2ccc(S(=O)(=O)N=C(N)N)cc2)c2ccccc21`, for which the GI50 in the assay with OVCAR-8 was > 100 µM (inactive); in the assay on DU-145, > 100 µM (inactive); in the assay with K562, > 100 µM (inactive); in the assay on MOLT-4, 25.5 µM (inactive); in the assay with SF-295, > 100 µM (inactive); in the assay with MDA-N, > 100 µM (inactive). In addition, the GI50 in the assay with SK-MEL-2, with SW-620, with M14, with PC-3, with SK-MEL-5 and in the assay with COLO 205 was > 100 µM (inactive) each time. The GI50 in the assay on UO-31, with HOP-62, with 786-0 and in the assay on SNB-75 was > 100 µM (inactive) in each case.
As for `CC12CCC(Br)C(C)(C)C1CC=C1C(=O)OCC1O2` (stereo not given), the GI50 is 11.6 µM (inactive) in the assay on OVCAR-8; 12 µM (inactive) with DU-145; 12.7 µM (inactive) with K562; 11.1 µM (inactive) with RXF 393; 7.05 µM (inactive) in the assay with MOLT-4; 15.8 µM (inactive) with SF-295. Also, the GI50 is 14.9 µM (inactive) with BT-549; 13.6 µM (inactive) in the assay on SK-MEL-2; 16.7 µM (inactive) in the assay on SW-620; 20.5 µM (inactive) in the assay with M14; 9.89 µM (inactive) with PC-3; 15.1 µM (inactive) in the assay on SK-MEL-5. In addition, the GI50 in the assay on COLO 205 was 18.2 µM (inactive); with UO-31 it was 8.13 µM (inactive); in the assay on 786-0, 19.4 µM (inactive); in the assay with SNB-75, 15.5 µM (inactive).
